Article PMC2842125 (Journal of medicinal chemistry, 2010)

How the values were obtained:
[1] = test system: HEK293 cells; assay: EGF-stimulated ERK1/2 activation, phospho-ERK1/2 immunoblot
[2] = molecular target: T1, SHP2 (Homo sapiens, UniProt Q06124); assay: SHP2-catalyzed pNPP hydrolysis inhibition; format: biochemical; conditions: ratio of IC50 values
T1 sequence (Q06124 262-528): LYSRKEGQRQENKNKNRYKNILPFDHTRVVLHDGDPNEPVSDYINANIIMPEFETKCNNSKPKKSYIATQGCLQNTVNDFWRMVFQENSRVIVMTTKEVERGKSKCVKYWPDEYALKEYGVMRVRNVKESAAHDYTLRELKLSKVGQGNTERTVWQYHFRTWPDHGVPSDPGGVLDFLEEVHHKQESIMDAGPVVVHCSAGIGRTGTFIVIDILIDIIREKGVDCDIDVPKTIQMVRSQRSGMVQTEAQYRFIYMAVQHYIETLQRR

| fold change of SHP2 IC50 relative to 9 [2] [fold] | SMILES | EGF-induced ERK1/2 activation, dose dependence ([1]; 0 to 20 μM, EGF stimulation 60 min) | initial transient phase of ERK1/2 activation (phospho-ERK1/2) ([1]; 10 μM, 3 h pre-incubation, 5-15 min post EGF 2 ng/mL) | sustained phase of ERK1/2 activation (phospho-ERK1/2) ([1]; 10 μM, 3 h pre-incubation, 60 min post EGF 2 ng/mL) | pERK1/2 level normalized by total ERK1/2 ([1]; 20 μM, EGF stimulation 60 min) |
| --- | --- | --- | --- | --- | --- |
|  | Cn1c(-c2ccccc2)c(-c2cn(CCC(=O)Nc3ccc(-c4ccccc4)cc3)nn2)c2cc(C(=O)O)c(O)cc21 [Compound 9, 3-(1-(3-(biphenyl-4-ylamino)-3-oxopropyl)-1H-1,2,3-triazol-4-yl)-6-hydroxy-1-methyl-2-phenyl-1H-indole-5-carboxylic acid] | concentration-dependent inhibition | not the initial transient phase | strongly inhibits |  |
| ~2 | Cn1c(-c2ccccc2)c(-c2cn(CC(=O)Nc3ccc(-c4ccccc4)cc3)nn2)c2cc(C(=O)O)c(O)cc21 [Compound 9a, 3-(1-(2-(Biphenyl-4-ylamino)-2-oxoethyl)-1H-1,2,3-triazol-4-yl)-6-hydroxy-1-methyl-2-phenyl-1H-indole-5-carboxylic acid] |  |  |  |  |
| ~2 | Cn1c(-c2ccccc2)c(-c2cn(CCCC(=O)Nc3ccc(-c4ccccc4)cc3)nn2)c2cc(C(=O)O)c(O)cc21 [Compound 9b, 3-(1-(4-(biphenyl-4-ylamino)-4-oxobutyl)-1H-1,2,3-triazol-4-yl)-6-hydroxy-1-methyl-2-phenyl-1H-indole-5-carboxylic acid] |  |  |  |  |
| 15.6 | Cn1c(-c2ccccc2)c(-c2cn(CCC(=O)Nc3ccccc3)nn2)c2cc(C(=O)O)c(O)cc21 [Compound 14, 6-Hydroxy-1-methyl-3-(1-(3-oxo-3-(phenylamino)propyl)-1H-1,2,3-triazol-4yl)-2-phenyl-1H-indole-5-carboxylic acid] |  |  |  | no appreciable change |
